Reference: patent US5679671A, “Amino acid derivative” (Eisai Co., Ltd., priority 1993, dated 1997)

Tests used:
[1] = Blood level and bioavailability in rats (Experiment E-2); conditions: rat, blood, po
Excerpt: Then changes in the blood level of each medicament were monitored with the lapse of time by using liquid chromatography.

ACE = target: T1, ACE (Rattus norvegicus, UniProt P47820); experiment: ACE inhibition activity using rat lung (Experiment A-2); type: biochemical; conditions: rat lung membrane fraction, borate buffer pH 8.3
T1 construct: membrane fraction prepared from rat lung; from tissue; host or cells: rat lung, membrane fraction (method of Wu-Wong et al.)
T1 sequence (P47820 36-1313): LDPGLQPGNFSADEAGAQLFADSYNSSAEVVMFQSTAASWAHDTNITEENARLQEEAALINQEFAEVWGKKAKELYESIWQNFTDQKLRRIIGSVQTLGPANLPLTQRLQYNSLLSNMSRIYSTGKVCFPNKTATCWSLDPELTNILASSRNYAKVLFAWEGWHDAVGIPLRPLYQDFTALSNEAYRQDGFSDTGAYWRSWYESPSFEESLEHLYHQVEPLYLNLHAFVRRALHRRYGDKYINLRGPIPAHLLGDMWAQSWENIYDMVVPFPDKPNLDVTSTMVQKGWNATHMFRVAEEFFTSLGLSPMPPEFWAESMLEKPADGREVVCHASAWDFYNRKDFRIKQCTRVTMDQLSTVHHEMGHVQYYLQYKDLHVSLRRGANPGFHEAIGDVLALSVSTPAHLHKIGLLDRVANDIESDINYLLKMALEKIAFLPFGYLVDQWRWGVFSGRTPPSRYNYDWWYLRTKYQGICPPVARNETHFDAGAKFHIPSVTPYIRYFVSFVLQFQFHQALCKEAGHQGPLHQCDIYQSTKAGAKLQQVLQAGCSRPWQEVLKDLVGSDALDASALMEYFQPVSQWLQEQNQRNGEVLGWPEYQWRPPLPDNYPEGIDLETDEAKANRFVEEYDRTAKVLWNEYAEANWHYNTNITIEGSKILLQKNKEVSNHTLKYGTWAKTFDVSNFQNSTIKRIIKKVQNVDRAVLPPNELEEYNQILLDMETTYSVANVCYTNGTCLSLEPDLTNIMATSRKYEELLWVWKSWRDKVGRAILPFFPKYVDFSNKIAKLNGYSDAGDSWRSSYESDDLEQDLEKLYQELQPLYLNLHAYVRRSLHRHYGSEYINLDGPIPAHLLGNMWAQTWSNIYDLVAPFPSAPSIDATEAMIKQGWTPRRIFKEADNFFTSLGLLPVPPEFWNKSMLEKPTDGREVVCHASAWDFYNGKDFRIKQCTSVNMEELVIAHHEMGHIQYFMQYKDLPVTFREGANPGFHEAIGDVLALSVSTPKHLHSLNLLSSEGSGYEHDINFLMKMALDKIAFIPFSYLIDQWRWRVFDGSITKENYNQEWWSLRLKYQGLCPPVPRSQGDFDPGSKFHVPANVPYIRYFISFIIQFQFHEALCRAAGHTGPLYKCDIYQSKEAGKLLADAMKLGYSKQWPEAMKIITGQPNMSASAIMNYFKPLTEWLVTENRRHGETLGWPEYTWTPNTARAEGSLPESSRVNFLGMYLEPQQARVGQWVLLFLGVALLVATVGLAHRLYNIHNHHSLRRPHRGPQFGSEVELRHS
Protocol: The ACE inhibition activity was determined by using a membrane fraction prepared from rat lung in accordance with the method of Wu-Wong et al. (Characterization of Endthelin Converting Enzyme in Rat Lung., Junshyum R. Wu-Wong, Gerald, P. Budzik, Edward M. Devine and Terry J. Opgenorth, Biochem. Biophys. Res. Commun., 1990, 171, 1291-1296.).
The ACE activity was determined with the use of a modification (modified to a borate buffer, pH 8.3) of the method of Cushman and Cheung (Spectrophotometric Assay and Properties of the Angiotensin-Converting Enzyme of Rabbit Lung., Cushman, D. W. and Cheung H. S., 1971, 20, 1637-1648.).
In the presence of ACE, the hippurate liberated from hippuryl-histidyl-leucine (Hippuryl-His-Leu (PeptideInstitute Inc., Japan)) was extracted with ethyl acetate and then the absorbance was measured at a wavelength of 228 nm.
With respect to the ACE inhibition activity, the inhibitor was added to the experimental system as described above in such a manner as to give the final concentrations of 1, 3, 10, 30, 100, 300 and 1000 nM, an inhibition curve was prepared, and then the concentration at which 50% inhibition was achieved was taken as IC50.

[2] = target: T2, vasopressin (V2) receptor (Rattus norvegicus, UniProt Q00788); experiment: V2 receptor binding assay, rat kidney membrane (Experiment F-2); conditions: [3H]-Arg-vasopressin, pH 7.4
T2 construct: rat kidney (V2); from tissue; host or cells: rat kidney membranes
T2 sequence (Q00788 whole entry): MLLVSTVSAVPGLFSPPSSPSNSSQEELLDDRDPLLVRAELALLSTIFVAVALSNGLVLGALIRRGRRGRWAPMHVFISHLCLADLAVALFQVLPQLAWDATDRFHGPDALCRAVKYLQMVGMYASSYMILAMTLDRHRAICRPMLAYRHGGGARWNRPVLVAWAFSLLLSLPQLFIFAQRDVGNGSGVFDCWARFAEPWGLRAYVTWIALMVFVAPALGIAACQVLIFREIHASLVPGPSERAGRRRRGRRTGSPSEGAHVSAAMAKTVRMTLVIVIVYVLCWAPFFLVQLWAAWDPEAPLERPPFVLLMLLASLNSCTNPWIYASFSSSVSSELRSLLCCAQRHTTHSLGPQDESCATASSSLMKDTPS
Protocol: (§1) Membrane specimens of rat liver (V1) and rat kidney (V2) were used. 100,000 counts (3.69 nM) of [^3 H]-Arg-vasopressin, 25 μg (1 mg protein/ml) of each membrane specimen and a test medicament (10^-7 to 10^-5 M) were incubated in 250 μl in total of an assay buffer (pH=7.4) containing 10 mM of MgCl2, 2 mM of EGTA and 20 mM of HEPES at 4° C. over day and night. Then, the incubation was washed with 5-ml portions of the buffer 5 times to thereby separate the membrane specimen binding to vasopressin followed by filtration with the use of a glass filter (GF/F). This glass filter was dried for about 3 hours and mixed with a cocktail for liquid scintillation (10 ml, ACSII). After allowing to stand overnight, the amount of the [^3 H]-Arg-vasopressin binding to the membrane was determined with a liquid scintillation counter and the inhibition ratio was calculated in accordance with the following formula: […]
(§2) B1; the amount of [^3 H]-Arg-vasopressin binding to the membrane in the presence of excessive vasopressin (10 μM)
(§3) C0; the amount of [^3 H]-Arg-vasopressin binding to the membrane in the absence of the test medicament and
(§4) C1; the amount of [^3 H]-Arg-vasopressin binding to the membrane in the presence of both the test medicament in a known amount and [^3 H]-Arg-vasopressin. […]

[3] = target: T3, vasopressin (V1) receptor (Rattus norvegicus, UniProt P30560); experiment: V1 receptor binding assay, rat liver membrane (Experiment F-2); conditions: [3H]-Arg-vasopressin, pH 7.4
T3 construct: Membrane specimens of rat liver (V1); from tissue; host or cells: rat liver membranes
T3 sequence (P30560 whole entry): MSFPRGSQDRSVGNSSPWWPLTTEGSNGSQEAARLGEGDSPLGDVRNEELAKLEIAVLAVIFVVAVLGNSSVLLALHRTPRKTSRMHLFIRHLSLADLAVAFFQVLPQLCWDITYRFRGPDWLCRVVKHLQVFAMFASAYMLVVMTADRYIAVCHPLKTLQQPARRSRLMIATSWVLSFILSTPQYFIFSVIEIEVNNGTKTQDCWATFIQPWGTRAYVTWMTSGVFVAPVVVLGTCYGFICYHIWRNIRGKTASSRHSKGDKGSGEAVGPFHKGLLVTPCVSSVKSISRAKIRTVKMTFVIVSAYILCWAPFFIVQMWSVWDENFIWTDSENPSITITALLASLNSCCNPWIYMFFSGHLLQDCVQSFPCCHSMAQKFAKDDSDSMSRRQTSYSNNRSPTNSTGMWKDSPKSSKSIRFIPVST
Protocol: as §1, §2, §3, §4

## O=C(N[C@H]1Cc2ccccc2[C@H]2CCC[C@@H](C(=O)O)N2C1=O)[C@@H](S)Cc1ccccc1 [Comp. cpd. E-1, [4S-[4α,7α(R*),12bβ]]-7-[(1-oxo-2-(S)-thio-3-phenyl-propyl)amino]-1,2,3,4,6,7,8,12b-octahydro-6-oxopyrido-[2,1-a][2]benzazepine-4-carboxylic acid, reference compound]
[1]; 10 mg/kg
  bioavailability: 4.3%
[1]; 30 mg/kg
  bioavailability: 7.8%

## CC[C@H](C)[C@H](S)C(=O)NC1CCc2ccccc2N(CC(=O)O)C1=O (stereo partly drawn) [Example A-9, 1-Carboxymethyl-3-[(2S,3S)-2-mercapto-3-methylvarelylamino]-1H-[1]benzazepin-2-one]
ACE
  IC50: 13 nM

## CC[C@H](C)[C@H](S)C(=O)N[C@H]1CCc2ccccc2N(CC(=O)O)C1=O [Example A-11, (S)-3-[(2S,3S)-2-Mercapto-3-methylvarelylamino]-1-carboxymethyl-2,3,4,5-tetrahydro-1H-[1]benzazepin-2-one]
ACE
  IC50: 11 nM

## O=C(N[C@H]1CCC[C@H]2SC[C@@H](C(=O)O)N2C1=O)[C@@H](S)Cc1ccccc1 [Example F-17, [3R-[3α,6α(S*),9aβ]]-6-[[(S)-1-Oxo-2-thio-3-phenylpropyl]amino]-octahydro-5-oxothiazol[3,2-a]-azepine-3-carboxylic acid]
[2]
  IC50: 1390 nM
[3]
  IC50: ≥ 10000 nM
